Counter-ions that a name gives are not always drawn.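 Cells were grown in 96-well plates and exposed to each compound for 48 hours at five concentrations; endpoints were interpolated linearly between bracketing concentrations, or set to the highest concentration if not reached. Abbreviation: GI50, concentration required for 50% inhibition of growth.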 Activity calls are given as the source filed them. No stated cut-off is given here; in the data, active = GI50 up to about 1.1 µM and inactive = higher.
How the values were obtained:
Assay in all cases: NCI tumour cell line growth inhibition, 48 h
A549 = tested on: A549
SN12C = tested on: SN12C
SNB-75 = tested on: SNB-75
LOX IMVI = tested on: LOX IMVI
ACHN = tested on: ACHN
SNB-19 = tested on: SNB-19
NCI/ADR-RES = tested on: NCI/ADR-RES
A498 = tested on: A498
Malme-3M = tested on: Malme-3M
OVCAR-8 = tested on: OVCAR-8
PC-3 = tested on: PC-3
CAKI-1 = tested on: CAKI-1
SK-MEL-28 = tested on: SK-MEL-28
HCT-116 = tested on: HCT-116
M14 = tested on: M14
SF-268 = tested on: SF-268
UO-31 = tested on: UO-31
HOP-62 = tested on: HOP-62
HOP-92 = tested on: HOP-92
SR = tested on: SR

Measured: GI50

O=[N+]([O-])c1ccc(/C=N/n2c(CO)nc3ccccc32)o1
inactive: A549 10.5 µM | SN12C 5.35 µM | SNB-75 24.6 µM | LOX IMVI 2.92 µM | ACHN 4.25 µM | SNB-19 15.8 µM | NCI/ADR-RES 15.7 µM | A498 17.9 µM | Malme-3M 2.16 µM | OVCAR-8 10.3 µM | PC-3 10.2 µM | CAKI-1 9.68 µM | SK-MEL-28 3.52 µM | HCT-116 1.71 µM | M14 4.17 µM | SF-268 10.4 µM | UO-31 8.32 µM | HOP-62 11.9 µM | HOP-92 3.51 µM

OC(CNc1ccccn1)c1ccccc1 (centres undefined) [PHENYRAMIDOL HYDROCHLORIDE]
inactive: A549 > 100 µM | SN12C 63.1 µM | SNB-75 > 100 µM | LOX IMVI > 100 µM | ACHN > 100 µM | SNB-19 > 100 µM | NCI/ADR-RES > 100 µM | A498 > 100 µM | Malme-3M > 100 µM | OVCAR-8 > 100 µM | PC-3 > 100 µM | CAKI-1 > 100 µM | SK-MEL-28 > 100 µM | HCT-116 > 100 µM | M14 > 100 µM | SF-268 > 100 µM | UO-31 > 100 µM | HOP-62 > 100 µM | HOP-92 > 100 µM

CCc1cn(C2CC(CO)C(CO)S2)c(=O)[nH]c1=O (centres undefined)
inactive: A549 > 100 µM | SN12C > 100 µM | SNB-75 > 100 µM | LOX IMVI > 100 µM | ACHN > 100 µM | SNB-19 > 100 µM | NCI/ADR-RES > 100 µM | A498 > 100 µM | Malme-3M > 100 µM | OVCAR-8 > 100 µM | PC-3 > 100 µM | CAKI-1 > 100 µM | SK-MEL-28 > 100 µM | HCT-116 > 100 µM | M14 > 100 µM | SF-268 > 100 µM | UO-31 > 100 µM | HOP-62 > 100 µM | HOP-92 > 100 µM

CC[n+]1[b-](C(C)(C)C)n(/N=C/C(C)(C)C)[b-](C(C)(C)C)[n+]1CC
inactive: A549 > 100 µM | SN12C > 100 µM | SNB-75 > 100 µM | LOX IMVI > 100 µM | ACHN > 100 µM | SNB-19 > 100 µM | SR > 100 µM | NCI/ADR-RES > 100 µM | Malme-3M > 100 µM | OVCAR-8 > 100 µM | PC-3 > 100 µM | CAKI-1 > 100 µM | SK-MEL-28 > 100 µM | HCT-116 > 100 µM | M14 > 100 µM | SF-268 > 100 µM | UO-31 > 100 µM | HOP-62 > 100 µM

OC(C/C=N/Nc1ccccc1)(C(F)(F)Cl)C(F)(F)Cl
inactive: A549 > 10 µM | SN12C > 10 µM | SNB-75 9.91 µM | LOX IMVI > 10 µM | ACHN 4.49 µM | SNB-19 > 10 µM | NCI/ADR-RES > 10 µM | A498 > 10 µM | Malme-3M > 10 µM | OVCAR-8 > 10 µM | PC-3 4.05 µM | CAKI-1 7.43 µM | SK-MEL-28 > 10 µM | HCT-116 5.15 µM | M14 > 10 µM | SF-268 > 10 µM | UO-31 9.98 µM | HOP-62 > 10 µM | HOP-92 7.35 µM

From ChEMBL document CHEMBL1201862, “PubChem BioAssay data set” (2004)
